US20230398130A1, “METHODS AND COMPOSITIONS FOR DIFFERENTIATING STEM CELLS” (Massachusetts Institute of Technology, priority 2020, published 2023)

Columns and labels:
ISC-enriched organoids [1] = experiment: Primary screen, 384-well 2.5-D organoid differentiation (ENR+CD, 6 days): carbachol-induced lysozyme secretion (LYZ.S); assay type: cell-based, murine; details: primary screen; for Dose.FC.LYZ.S: FC vs plate median; for Dose.FC.LYZ.S (log 2 fold change): vs plate median
From the text: (§1) High-throughput screening.

ISC-enriched organoids [2] = experiment: Primary screen, 384-well 2.5-D organoid differentiation (ENR+CD, 6 days, Target Selective Inhibitor Library, vs whole-plate median): ATP (CellTiter-Glo 3D, CTG); details: primary screen; for Dose.FC.CTG: FC vs plate median; for Z.CTG: standard z score; for Dose.FC.CTG (log 2 fold change): vs plate median
ISC-enriched organoids [3] = experiment: Primary screen, 384-well 2.5-D organoid differentiation (ENR+CD, 6 days): basal lysozyme secretion (LYZ.NS); assay type: cell-based, murine; details: primary screen; for Dose.FC.LYZ.NS: FC vs plate median; for Z.LYZ.NS: standard z score; for Dose.FC.LYZ.NS (log 2 fold change): vs plate median
From the text: as §1

Question: `Cc1cc(SCc2sc(-c3ccc(C(F)(F)F)c(F)c3)nc2C)ccc1OCC(=O)O` [GW0742] was tested. Which Dose.FC.LYZ.S (ISC-enriched organoids [1]; Dose 0.08 uM) did it give?
Answer: Its Dose.FC.LYZ.S is 0.048 log 2 fold change.

Question: What about the Dose.FC.LYZ.S (ISC-enriched organoids [1]; Dose 0.40 uM) of the same compound?
Answer: Its Dose.FC.LYZ.S is 0.106 log 2 fold change.

Question: And the Dose.FC.LYZ.S (ISC-enriched organoids [1]; Dose 2.00 uM)?
Answer: The Dose.FC.LYZ.S was 0.014 log 2 fold change.

Question: And the Dose.FC.LYZ.S (ISC-enriched organoids [1]; Dose 10.00 uM)?
Answer: The Dose.FC.LYZ.S was −0.183 log 2 fold change.

Question: And the Dose.FC.CTG (ISC-enriched organoids [2]; Dose 0.08 uM)?
Answer: The Dose.FC.CTG was −0.751 log 2 fold change.

Question: And the Z.CTG (ISC-enriched organoids [2]; Dose 0.08 uM)?
Answer: Its Z.CTG is −1.794.

Question: What about the Dose.FC.CTG (ISC-enriched organoids [2]; Dose 0.40 uM) of the same compound?
Answer: The Dose.FC.CTG was −0.489 log 2 fold change.

Question: And the Z.CTG (ISC-enriched organoids [2]; Dose 0.40 uM)?
Answer: Its Z.CTG is −1.167.

Question: What about the Dose.FC.CTG (ISC-enriched organoids [2]; Dose 2.00 uM) of the same compound?
Answer: The Dose.FC.CTG was −0.249 log 2 fold change.

Question: What about the Z.CTG (ISC-enriched organoids [2]; Dose 2.00 uM) of the same compound?
Answer: The Z.CTG was −0.596.

Question: What about the Dose.FC.CTG (ISC-enriched organoids [2]; Dose 10.00 uM) of the same compound?
Answer: The Dose.FC.CTG was −0.451 log 2 fold change.

Question: And the Z.CTG (ISC-enriched organoids [2]; Dose 10.00 uM)?
Answer: Its Z.CTG is −1.078.

Question: What about the Dose.FC.LYZ.NS (ISC-enriched organoids [3]; Dose 0.08 uM) of the same compound?
Answer: The Dose.FC.LYZ.NS was 0.052 log 2 fold change.

Question: And the Z.LYZ.NS (ISC-enriched organoids [3]; Dose 0.08 uM)?
Answer: Its Z.LYZ.NS is 0.454.

Question: And the Dose.FC.LYZ.NS (ISC-enriched organoids [3]; Dose 0.40 uM)?
Answer: The Dose.FC.LYZ.NS was 0.045 log 2 fold change.

Question: What about the Z.LYZ.NS (ISC-enriched organoids [3]; Dose 0.40 uM) of the same compound?
Answer: Its Z.LYZ.NS is 0.390.

Question: And the Dose.FC.LYZ.NS (ISC-enriched organoids [3]; Dose 2.00 uM)?
Answer: Its Dose.FC.LYZ.NS is 0.026 log 2 fold change.

Question: And the Z.LYZ.NS (ISC-enriched organoids [3]; Dose 2.00 uM)?
Answer: Its Z.LYZ.NS is 0.231.

Question: And the Dose.FC.LYZ.NS (ISC-enriched organoids [3]; Dose 10.00 uM)?
Answer: The Dose.FC.LYZ.NS was −0.152 log 2 fold change.

Question: What about the Z.LYZ.NS (ISC-enriched organoids [3]; Dose 10.00 uM) of the same compound?
Answer: Its Z.LYZ.NS is −1.322.

Question: What does the source list for `O=C1NC(=O)/C(=C/c2cccc(C(F)(F)F)c2)S1` [SMI-4a]?
Answer: Dose.FC.LYZ.S (log 2 fold change) (ISC-enriched organoids [1]; Dose 0.08 uM): 0.036; Dose.FC.LYZ.S (log 2 fold change) (ISC-enriched organoids [1]; Dose 0.40 uM): −0.063; Dose.FC.LYZ.S (log 2 fold change) (ISC-enriched organoids [1]; Dose 2.00 uM): −0.042; Dose.FC.LYZ.S (log 2 fold change) (ISC-enriched organoids [1]; Dose 10.00 uM): −0.134; Z.CTG (standard z score) (ISC-enriched organoids [2]; Dose 0.08 uM): −0.366; Dose.FC.CTG (log 2 fold change) (ISC-enriched organoids [2]; Dose 0.08 uM): −0.153; Z.CTG (standard z score) (ISC-enriched organoids [2]; Dose 0.40 uM): −0.758; Dose.FC.CTG (log 2 fold change) (ISC-enriched organoids [2]; Dose 0.40 uM): −0.317; Z.CTG (standard z score) (ISC-enriched organoids [2]; Dose 2.00 uM): −0.793; Dose.FC.CTG (log 2 fold change) (ISC-enriched organoids [2]; Dose 2.00 uM): −0.332; Z.CTG (standard z score) (ISC-enriched organoids [2]; Dose 10.00 uM): −0.781; Dose.FC.CTG (log 2 fold change) (ISC-enriched organoids [2]; Dose 10.00 uM): −0.327; Z.LYZ.NS (standard z score) (ISC-enriched organoids [3]; Dose 0.08 uM): 0.188; Dose.FC.LYZ.NS (log 2 fold change) (ISC-enriched organoids [3]; Dose 0.08 uM): 0.022; Z.LYZ.NS (standard z score) (ISC-enriched organoids [3]; Dose 0.40 uM): −0.524; Dose.FC.LYZ.NS (log 2 fold change) (ISC-enriched organoids [3]; Dose 0.40 uM): −0.060; Z.LYZ.NS (standard z score) (ISC-enriched organoids [3]; Dose 2.00 uM): 0.283; Dose.FC.LYZ.NS (log 2 fold change) (ISC-enriched organoids [3]; Dose 2.00 uM): 0.032; Z.LYZ.NS (standard z score) (ISC-enriched organoids [3]; Dose 10.00 uM): −0.643; Dose.FC.LYZ.NS (log 2 fold change) (ISC-enriched organoids [3]; Dose 10.00 uM): −0.074
